Article PMC12583704 (Signal Transduction and Targeted Therapy, 2025)

Experiment: Phase 1 study NCT03594422: adverse events graded by NCI CTCAE v4.03
Type: in vivo, human
Method: Part 1 was a dose-escalation study to determine the recommended phase 2 dose (RP2D) in solid tumors. […] The initial design was a 3 + 3 dose escalation from 20 mg, but the protocol was amended to randomly enroll and assign patients to starting doses of 30, 40, and 50 mg on the basis of safety data acquired in the CML trial.[20] […] An interactive web response system was used for randomization. Part 2 was a nonrandomized study focusing on patients with SDH-deficient GISTs. […] On the basis of preliminary data from adult patients, adolescent patients with advanced wild-type GISTs were also included in Part 2. The dosage for adolescents was adjusted according to their body weights.
AEs were evaluated at each follow-up visit: on Days 1, 8, 15, and 22 during Cycles 1 and 2; and on Days 1 and 15 in Cycle 3 and all subsequent cycles, up to 30 days after the final dose. All AEs were graded according to the National Cancer Institute Common Terminology Criteria for Adverse Events v4.03. Clinical laboratory investigations for routine blood examinations and serum chemistry parameters were performed during every cycle (on Day 1), during Cycles 1 and 2 (on Days 8, 15, and 22), and 30 days after the last dose of treatment. Urinalysis, coagulation, cardiac troponin I/T, lipase, amylase, and electrocardiographic evaluations were conducted at baseline; during Cycles 1 and 2 (on Days 1 and 15); during Cycles 3, 5, 7, and 9; every three cycles after Cycle 9 (on Day 1); and 14 days after the last dose of treatment. All patients underwent tumor imaging for response assessment via computed tomography or magnetic resonance imaging at screening and every two cycles (8 weeks) until progression or discontinuation. Target and nontarget lesions were assessed per the Response Evaluation Criteria in Solid Tumors version 1.1 (RECIST v1.1).

Which results are given for `Cc1ccc(C(=O)Nc2ccc(CN3CCN(C)CC3)c(C(F)(F)F)c2)cc1C#Cc1cnc2[nH]ncc2c1` [Olverembatinib, 3-[(1H-pyrazolo[3,4-b]pyridin-5-yl)ethynyl]-4-methyl-N-{4-[(4-methylpiperazin-1-yl)methyl]-3-(trifluoromethyl)phenyl]benzamide]?
TEAE: Abdominal pain (20 mg (n = 3), Any grade): 0 n (%); TEAE: Alanine aminotransferase increased (20 mg (n = 3), Any grade): 0 n (%); TEAE: Anemia (20 mg (n = 3), Any grade): 1 (33.3) n (%); TEAE: Aspartate aminotransferase increased (20 mg (n = 3), Any grade): 0 n (%); TEAE: C-reactive protein increased (20 mg (n = 3), Any grade): 0 n (%); TEAE: Constipation (20 mg (n = 3), Any grade): 2 (66.7) n (%); TEAE: Fatigue (20 mg (n = 3), Any grade): 0 n (%); TEAE: Hyperuricemia (20 mg (n = 3), Any grade): 2 (66.7) n (%); TEAE: Hypoalbuminemia (20 mg (n = 3), Any grade): 0 n (%); TEAE: Leukocyte count increased (20 mg (n = 3), Any grade): 1 (33.3) n (%); TEAE: Melanocytic nevus (20 mg (n = 3), Any grade): 0 n (%); TEAE: Neutrophil count increased (20 mg (n = 3), Any grade): 1 (33.3) n (%); TEAE: Pyrexia (20 mg (n = 3), Any grade): 0 n (%); TEAEs (20 mg (n = 3), Any grade): 3 (100.0) n (%); TRAE: ALT increased (20 mg (n = 3), Any grade): 0 n (%); TRAE: AST increased (20 mg (n = 3), Any grade): 0 n (%); TRAE: Anemia (20 mg (n = 3), Any grade): 0 n (%); TRAE: Blood creatinine increased (20 mg (n = 3), Any grade): 0 n (%); TRAE: Constipation (20 mg (n = 3), Any grade): 1 (33.3) n (%); TRAE: Fatigue (20 mg (n = 3), Any grade): 0 n (%); TRAE: Hypoalbuminemia (20 mg (n = 3), Any grade): 0 n (%); TRAE: Leukocyte count increased (20 mg (n = 3), Any grade): 1 (33.3) n (%); TRAE: Melanocytic nevus (20 mg (n = 3), Any grade): 0 n (%); TRAE: Neutrophil count increased (20 mg (n = 3), Any grade): 1 (33.3) n (%); TRAE: Platelet count increased (20 mg (n = 3), Any grade): 0 n (%); TRAE: Pyrexia (20 mg (n = 3), Any grade): 0 n (%); TEAE: Abdominal pain (20 mg (n = 3), Grade 3-5): 0 n (%); TEAE: Alanine aminotransferase increased (20 mg (n = 3), Grade 3-5): 0 n (%); TEAE: Anemia (20 mg (n = 3), Grade 3-5): 0 n (%); TEAE: Aspartate aminotransferase increased (20 mg (n = 3), Grade 3-5): 0 n (%); TEAE: C-reactive protein increased (20 mg (n = 3), Grade 3-5): 0 n (%); TEAE: Constipation (20 mg (n = 3), Grade 3-5): 0 n (%); TEAE: Fatigue (20 mg (n = 3), Grade 3-5): 0 n (%); TEAE: Hyperuricemia (20 mg (n = 3), Grade 3-5): 0 n (%); TEAE: Hypoalbuminemia (20 mg (n = 3), Grade 3-5): 0 n (%); TEAE: Leukocyte count increased (20 mg (n = 3), Grade 3-5): 0 n (%); TEAE: Melanocytic nevus (20 mg (n = 3), Grade 3-5): 0 n (%); TEAE: Neutrophil count increased (20 mg (n = 3), Grade 3-5): 0 n (%); TEAE: Pyrexia (20 mg (n = 3), Grade 3-5): 0 n (%); TEAEs (20 mg (n = 3), Grade 3-5): 0 n (%); TRAE: ALT increased (20 mg (n = 3), Grade 3-5): 0 n (%); TRAE: AST increased (20 mg (n = 3), Grade 3-5): 0 n (%); TRAE: Anemia (20 mg (n = 3), Grade 3-5): 0 n (%); TRAE: Blood creatinine increased (20 mg (n = 3), Grade 3-5): 0 n (%); TRAE: Constipation (20 mg (n = 3), Grade 3-5): 0 n (%); TRAE: Fatigue (20 mg (n = 3), Grade 3-5): 0 n (%); TRAE: Hypoalbuminemia (20 mg (n = 3), Grade 3-5): 0 n (%); TRAE: Leukocyte count increased (20 mg (n = 3), Grade 3-5): 0 n (%); TRAE: Melanocytic nevus (20 mg (n = 3), Grade 3-5): 0 n (%); TRAE: Neutrophil count increased (20 mg (n = 3), Grade 3-5): 0 n (%); TRAE: Platelet count increased (20 mg (n = 3), Grade 3-5): 0 n (%); TRAE: Pyrexia (20 mg (n = 3), Grade 3-5): 0 n (%); TEAE: Abdominal pain (30 mg (n = 15), Any grade): 5 (33.3) n (%); TEAE: Alanine aminotransferase increased (30 mg (n = 15), Any grade): 6 (40.0) n (%); TEAE: Anemia (30 mg (n = 15), Any grade): 8 (53.3) n (%); TEAE: Aspartate aminotransferase increased (30 mg (n = 15), Any grade): 7 (46.7) n (%); TEAE: C-reactive protein increased (30 mg (n = 15), Any grade): 3 (20.0) n (%); TEAE: Constipation (30 mg (n = 15), Any grade): 5 (33.3) n (%); TEAE: Fatigue (30 mg (n = 15), Any grade): 4 (26.7) n (%); TEAE: Hyperuricemia (30 mg (n = 15), Any grade): 7 (46.7) n (%); TEAE: Hypoalbuminemia (30 mg (n = 15), Any grade): 4 (26.7) n (%); TEAE: Leukocyte count increased (30 mg (n = 15), Any grade): 8 (53.3) n (%); TEAE: Melanocytic nevus (30 mg (n = 15), Any grade): 3 (20.0) n (%); TEAE: Neutrophil count increased (30 mg (n = 15), Any grade): 6 (40.0) n (%); TEAE: Pyrexia (30 mg (n = 15), Any grade): 5 (33.3) n (%); TEAEs (30 mg (n = 15), Any grade): 15 (100.0) n (%); TRAE: ALT increased (30 mg (n = 15), Any grade): 4 (26.7) n (%)
